# From patent US10149836B2, “Isoxazole treatments for frontotemporal dementia” (The Board of Regents of the University of Texas System, priority 2014, dated 2018)
# Legend:
# progranulin [1] = experiment: RT PCR of progranulin mRNA and pre-mRNA in Neuro2A cells; type: cell-based, mouse; settings: 48 hours, increasing concentrations
# Experimental: FIG. 2. Neuro2A cells were treated for 48 hours with increasing concentrations of Isoxazole. RT PCR was conducted to measure increases in progranulin mRNA and pre-mRNA (hnRNA before splicing).
# RNA Extraction and Quantitative PCR. Cells in 6-well plates were lysed in 500 μl of TRIzol® reagent/well. cDNA was reverse-transcribed with MultiScribe™ (Applied Biosystems). For some experiments, the Quick-RNA MiniPrep system (Zymo Research, Irvine, Calif.) was used to isolate total RNA. Primer sequences were as follows:
# Quantitative PCRs (qPCRs; 10 μl) contained 20 ng of cDNA, 150 nM primer, and 5 μl of Fast SYBR Green PCR Master Mix (Applied Biosystems) and were performed in triplicate on an Applied Biosystems PRISM 7500 Fast sequence detection system. Relative mRNA levels were calculated using U36B or cyclophilin Q primers as internal controls.
# Progranulin [2] = experiment: Progranulin protein expression in primary rat neurons (immunoblot, densitometric quantitation); type: cell-based; settings: 24 hours, two concentrations
# Experimental: FIGS. 1A-B. Neuro2A #48 cells show a marked increase in Progranulin levels due to Isoxazole treatment after 24 hours. (FIG. 1A) Cells were treated with Isoxazole in increasing concentrations ranging from 10 nM to 25 μM. […] (FIG. 1B) Primary rat neurons were treated for 24 hours with DMSO and two concentrations of Isoxazole to visualize the increase in Progranulin protein expression in the relevant in vivo cell type. […] Lower band: actin control. Bands at ˜75 kDa: Progranulin monomer. HMW bands: Progranulin multimers. Densitometric quantitation is shown on the right.
# Immunoblotting and Quantification. […] Mouse progranulin was detected with linker-3 anti-progranulin antibody at 1:5000 dilution, β-actin with anti-β-actin antibody (Sigma A2228) at 1:5000 dilution, human progranulin with anti-PC cell-derived growth factor antibody (Invitrogen) at 1:1000 dilution, and GAPDH with anti-GAPDH antibody (Sigma) at 1:10,000 dilution. Bound IgG was detected by ECL. For quantitative immunoblotting, secondary antibodies labeled with IRDye® infrared dyes and an Odyssey® infrared imager (LI-COR Biosciences) were used following the manufacturer's instructions.
# progranulin promoter = experiment: Luciferase reporter assay in Neuro2A #48 cells (human GRN start codon fused to firefly luciferase); type: cell-based, mouse; settings: for Luciferase activity over DMSO control: Neuro2A #48 cells, 24 hrs after compound addition, increasing concentrations
# Experimental: Plasmids and Cell Lines. The firefly luciferase coding sequence was fused by bacterial recombination to the authentic human GRN start codon in exon 2 (NM_002087.2) on a bacterial artificial chromosome (BACPAC RP11-812N09), and stably transfected Neuro-2a cells were derived.
# Library Screening and Luciferase Reporter Assays. Neuro-2a cells were assayed in 384-well plates (3000 cells/well). 6 hrs after cell plating, 1200 Prestwick Chemical Library® compounds in DMSO, including internal controls, were dispensed using a BioMek FX system to final concentrations of 2.5 μM compound and 1% DMSO (unless indicated otherwise). Sodium butyrate (9 mM) was used as a positive control on each plate for initial screening. Luciferase activity was measured 24 hr after compound addition using Bright-Glo™ reagent (20 μl/well; Promega). Each well was normalized to the average luminescence from DMSO-treated wells on the same plate.
# Technical details of HTS screen. Cell type used: Neuro-2a #48 cell line was cultured in DMEM (High glucose)/10%FBS/Pen-Strep/Zeocin (200 μg/mL) and plated in same media without Zeocin. All media is sterile filtered before use. The firefly luciferase coding sequence was fused by bacterial recombination to the authentic human GRN start codon in exon 2 (NM_002087.2) on a bacterial artificial chromosome (BACPAC RP11-812N09), and stably transfected Neuro-2a cells were derived (Cenik et al., 2011). Cells are put into single cell suspension and strained with 70 μm cell strainers before counting. The concentration of cells is adjusted to 150,000 cells/ml.
# 384 well plates were used for the assay: 50 μL of the cell suspension are added to each well for a final cell number per well of 7,500. Plates are spun down after plating and incubated at 37° C. under 5% CO2. Compound addition takes place 4 hours after plating. Test compounds are in columns 3-22. The vehicle control wells are in columns 2 and 23. The positive control, SAHA (3 μM), is plated in column 1 An untreated control (no DMSO) is in column 24. The plates are assayed for reporter activity 24 hrs after compound addition. All media is spun out of the plates and 20 μL of bright glo is added to each well and placed on shaker for 3-5 minutes. After shaking, plates are read and check from increases in activation over DMSO. Vehicle (DMSO) was used for baseline because it causes a slight activation of luciferase construct. […] All compounds were added from DMSO stocks and added at 0.5 μL per well (1% DMSO). All plates are read on an EnVision multilabel plate reader in luminescence mode. The data is then parsed into GeneData Screener v11 and quality controlled visually. Z′ values are calculated using the DMSO and SAHA controls. Plates that have a Z′ value less than 0.45 are further scrutinized. If the latter show systematic effects or if known errors occurred in these plates, they are repeated in a separate experiment. Data are then normalized and analyzed as previously described (Kim et al., 2013).
# progranulin (PGRN) = experiment: Progranulin (PGRN) protein expression in Neuro2a whole cell lysates by immunoblotting; type: cell-based, mouse; settings: Neuro2a cells, 48 hours; for PGRN levels compared to DMSO: highest concentrations, N=4; for progranulin protein levels by immunoblotting: increasing doses, whole cell lysates
# Experimental: FIG. 6. Protein analysis using immuoblotting. Neuro2a cells were treated with in increasing doses for 48 hours and whole cell lysates were analyzed for progranulin (PGRN) protein expression using immunobloting. N=4.
# FIG. 7. Graphical analysis of protein quantification using immunoblotting. Whole cell lysates were analyzed for progranulin (PGRN) protein expression using immunoblotting and were graphically plotted to show changes in band intensity. PGRN levels doubled compared to DMSO at the highest concentrations. N=4.
# Immunoblotting and Quantification. Cells were lysed in radioimmune precipitation assay buffer (50 mM Tris-HCl (pH 7.4), 150 mM NaCl, 1 mM EDTA, 1% Triton X-100, 1% sodium deoxycholate, 0.1% SDS, and Roche Complete protease inhibitor mixture) and cleared by centrifugation at 20,000×g for 10 min. 0.5-ml cell culture supernatants containing 1% FBS were concentrated by centrifugation at 14,000×g for 50 min in Millipore Amicon Ultra devices (3-kDa cutoff). 15-20 μg of total protein was separated by SDS-PAGE and transferred to nitrocellulose membranes. Membranes were blocked in 5% milk for 1 hr and probed overnight with primary antibodies at 4° C. Mouse progranulin was detected with linker-3 anti-progranulin antibody at 1:5000 dilution, β-actin with anti-β-actin antibody (Sigma A2228) at 1:5000 dilution, human progranulin with anti-PC cell-derived growth factor antibody (Invitrogen) at 1:1000 dilution, and GAPDH with anti-GAPDH antibody (Sigma) at 1:10,000 dilution. Bound IgG was detected by ECL. For quantitative immunoblotting, secondary antibodies labeled with IRDye® infrared dyes and an Odyssey® infrared imager (LI-COR Biosciences) were used following the manufacturer's instructions.
# Progranulin MEF cells = experiment: Lysosome rescue (lysotracker) in Progranulin MEF cells; type: cell-based, mouse; settings: one concentration, one trial
# Experimental: FIGS. 8A-8F. Dose Tested for Lysosome Rescue. Progranulin MEF cells were treated with 1 concentration each of C15 and C19 and levels of lysotracker were analyzed to look for reduction of lysosome levels back to wild type levels. The stained area per cell is measured for compound C15 (FIG. 8A) and C19 (FIG. 8B), area intensity for compound C15 (FIG. 8C) and C19 (FIG. 8D), and total number of lysosomes for compound C15 (FIG. 8E) and C19 (FIG. 8F).
# Progranulin MEF cells were treated with one aliquot each of C15 and C19 and levels of lysotracker were analyzed to look for reduction of lysosome levels back to wild type levels.
SMILES,Luciferase activity over DMSO control (progranulin promoter),PGRN levels compared to DMSO (progranulin (PGRN)),progranulin protein levels by immunoblotting (progranulin (PGRN)),further results
c1cnoc1 [Isoxazole],significant increase over control,,,progranulin mRNA (progranulin [1]): significant increases in a dose dependent manner; progranulin pre-mRNA (hnRNA before splicing) (progranulin [1]): significant increases in a dose dependent manner; Progranulin protein levels vs DMSO control (Progranulin [2]): significant increase over the DMSO control
"O=C(CCCCCCC(=O)Nc1ccccc1)NO [SAHA, reference compound]",,,,"Activation of luciferase reporter relative to base line (DMSO) (progranulin promoter; Neuro-2a #48 cells, SAHA 3 μM positive control, 24 hrs): 4-5 times base line"
COc1ccccc1C(=O)NNC1C(=O)Nc2ccccc21 (stereo not shown) [Compound C15],dose dependent increase in luciferase activity,doubled,increased progranulin protein levels,
CC(C)(C)c1cc2c(c(C(C)(C)C)c1)OC(c1cccc([N+](=O)[O-])c1O)N2 (stereo not shown) [Compound C19],only a small change,doubled,increased progranulin protein levels,lysosome levels (lysotracker) (Progranulin MEF cells): marked decrease in lysosome levels
"CCCCCCCCCCCCC/C=C/[C@@H](O)[C@@H](N)COP(=O)([O-])OCC[N+](C)(C)C [sphingosinephosphorylcholine, reference compound]",increasing levels of luciferase activity over DMSO control,,,
